Measured values as given in ChEMBL document CHEMBL1201862, “PubChem BioAssay data set” (2004).
Calls of active or inactive are those of the source.

Key:
[1] = tested on: Streptococcus sp. 'group A'; assay: Streptococcus pyogenes SK(-)GAS viability under kanamycin – luminescence, BacTiterGlo, confirmation, counter-screen for streptokinase expression inhibitor project, dose response (AID 1900); format: functional, organism-based
[2] = A Cell Based Secondary Assay To Explore Cytotoxicity of Compounds that Sensitize Mycobacterium Tuberculosis to Beta-Lactam Antibiotics.; format: functional
[3] = target: T1, Streptokinase A (Streptococcus pyogenes serotype M1, UniProt P10520); assay: viability-normalized secreted streptokinase activity reduction – plasminogen activation absorbance, OD405, dose response (AID 1914); format: functional, Streptococcus pyogenes M1 GAS;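 also: secreted streptokinase activity via plasminogen activation per viability signal from cell pellet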
T1 sequence (P10520 whole entry): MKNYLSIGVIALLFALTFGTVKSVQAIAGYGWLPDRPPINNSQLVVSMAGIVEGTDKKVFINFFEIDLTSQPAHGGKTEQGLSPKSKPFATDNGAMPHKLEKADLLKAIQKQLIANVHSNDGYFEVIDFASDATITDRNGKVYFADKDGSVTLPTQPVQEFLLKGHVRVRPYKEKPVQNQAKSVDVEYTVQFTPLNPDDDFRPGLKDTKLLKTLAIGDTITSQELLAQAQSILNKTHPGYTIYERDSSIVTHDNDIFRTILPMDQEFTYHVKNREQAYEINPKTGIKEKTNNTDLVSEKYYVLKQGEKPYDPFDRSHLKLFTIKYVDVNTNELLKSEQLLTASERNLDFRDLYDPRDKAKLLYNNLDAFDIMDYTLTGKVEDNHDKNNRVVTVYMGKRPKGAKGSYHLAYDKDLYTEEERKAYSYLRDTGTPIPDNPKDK

[4] = tested on: Streptococcus; assay: GAS UMAA2166 growth inhibition – luminescence, BacTiterGlo, counter-screen for streptokinase expression inhibitor project, dose response (AID 1915); format: functional, organism-based;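 also: potency for reduction of bacterial viability or growth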
[5] = target: Mu-type opioid receptor (Homo sapiens, UniProt P35372); format: functional, cell-based;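 also: U2OS cells with beta-arrestin recruitment to OPRM1 by beta-gal complementation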
Sequence of Mu-type opioid receptor (P35372 whole entry): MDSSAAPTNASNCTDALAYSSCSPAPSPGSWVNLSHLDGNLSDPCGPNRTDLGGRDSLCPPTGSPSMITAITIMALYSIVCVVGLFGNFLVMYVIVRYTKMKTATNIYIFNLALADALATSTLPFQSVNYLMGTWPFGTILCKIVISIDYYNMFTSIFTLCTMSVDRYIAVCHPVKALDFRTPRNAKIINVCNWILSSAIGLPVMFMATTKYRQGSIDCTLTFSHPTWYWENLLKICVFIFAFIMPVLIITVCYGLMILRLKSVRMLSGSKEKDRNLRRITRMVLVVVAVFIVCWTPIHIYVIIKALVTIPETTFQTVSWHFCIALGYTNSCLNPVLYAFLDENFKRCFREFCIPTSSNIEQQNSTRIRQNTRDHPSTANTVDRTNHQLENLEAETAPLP

[6] = target: 5-hydroxytryptamine receptor 2A (Mus musculus, UniProt P35363); format: functional, cell-based;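 also: CHO-K1 cells with tagged receptor and beta-arrestin; agonist potency measured as compound-induced activation of the receptor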
Sequence of 5-hydroxytryptamine receptor 2A (P35363 whole entry, the tested form may be a part): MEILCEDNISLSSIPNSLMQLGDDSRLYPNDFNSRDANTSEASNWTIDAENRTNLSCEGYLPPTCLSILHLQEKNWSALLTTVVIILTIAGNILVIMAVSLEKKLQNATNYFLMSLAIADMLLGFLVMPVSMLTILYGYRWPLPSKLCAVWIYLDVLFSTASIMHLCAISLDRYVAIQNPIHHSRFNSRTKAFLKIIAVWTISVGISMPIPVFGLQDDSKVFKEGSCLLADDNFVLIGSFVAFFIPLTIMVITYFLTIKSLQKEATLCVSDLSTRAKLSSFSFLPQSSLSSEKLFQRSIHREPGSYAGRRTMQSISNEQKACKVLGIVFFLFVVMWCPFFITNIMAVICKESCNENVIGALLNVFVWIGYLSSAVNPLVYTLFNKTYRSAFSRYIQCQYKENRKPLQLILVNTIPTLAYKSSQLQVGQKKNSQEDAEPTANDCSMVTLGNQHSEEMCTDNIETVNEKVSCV

[7] = blockers of HIV-1 envelope-mediated cell-cell fusion – cherry-pick, dose response (AID 652057); format: functional, cell-based
[8] = viability loss in CEM21 cells – cell-based, CellTiter-Glo luminescence, cherry-picked, cytotoxicity control for viral fusion inhibitor project, dose response (AID 652042); format: functional;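 also: potency for signal decrease meaning cytotoxicity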
[9] = blockers of HIV-1 ZM109 envelope-driven cell-cell fusion – HeLa effector, CEM target cells, luciferase, cherry-pick, dose response (AID 652058); format: functional, cell-based;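 also: luciferase signal from HIV-1 Env mediated cell-cell fusion of effector and target cells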
[10] = HIV-1 AD8 envelope cell-cell fusion blockers – cherry-pick, dose response (AID 652062); format: functional, cell-based;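 also: luciferase signal from cell-cell fusion driven by HIV-1 clade B AD8 Env; potency is for inhibitors of fusion seen as a drop in luminescence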
[11] = target: Fructose-bisphosphate aldolase (Mycobacterium tuberculosis, UniProt P9WQA3); assay: Fluorescence-based biochemical high throughput dose response assay for inhibitors of the fructose-bisphosphate aldolase (FBA) of M. tuberculosis.; format: functional
Sequence of Fructose-bisphosphate aldolase (P9WQA3 whole entry, the tested form may be a part): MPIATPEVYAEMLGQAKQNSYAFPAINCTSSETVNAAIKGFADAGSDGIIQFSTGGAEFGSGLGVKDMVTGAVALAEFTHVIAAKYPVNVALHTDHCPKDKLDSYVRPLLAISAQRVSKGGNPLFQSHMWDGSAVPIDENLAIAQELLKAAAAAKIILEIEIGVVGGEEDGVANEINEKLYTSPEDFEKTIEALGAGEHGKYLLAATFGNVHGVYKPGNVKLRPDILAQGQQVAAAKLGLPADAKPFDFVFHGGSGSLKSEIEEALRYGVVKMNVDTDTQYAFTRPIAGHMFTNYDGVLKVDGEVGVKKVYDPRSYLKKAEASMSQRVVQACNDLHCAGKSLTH

[12] = target: T2, Sentrin-specific protease 1 (Homo sapiens, UniProt Q9P0U3); assay: SENP1 catalytic domain blockers, concentration series – biochemical, kinetic FRET, dose response (AID 651697); format: functional; conditions: read-out: IC50_Mean
T2 sequence (Q9P0U3 whole entry): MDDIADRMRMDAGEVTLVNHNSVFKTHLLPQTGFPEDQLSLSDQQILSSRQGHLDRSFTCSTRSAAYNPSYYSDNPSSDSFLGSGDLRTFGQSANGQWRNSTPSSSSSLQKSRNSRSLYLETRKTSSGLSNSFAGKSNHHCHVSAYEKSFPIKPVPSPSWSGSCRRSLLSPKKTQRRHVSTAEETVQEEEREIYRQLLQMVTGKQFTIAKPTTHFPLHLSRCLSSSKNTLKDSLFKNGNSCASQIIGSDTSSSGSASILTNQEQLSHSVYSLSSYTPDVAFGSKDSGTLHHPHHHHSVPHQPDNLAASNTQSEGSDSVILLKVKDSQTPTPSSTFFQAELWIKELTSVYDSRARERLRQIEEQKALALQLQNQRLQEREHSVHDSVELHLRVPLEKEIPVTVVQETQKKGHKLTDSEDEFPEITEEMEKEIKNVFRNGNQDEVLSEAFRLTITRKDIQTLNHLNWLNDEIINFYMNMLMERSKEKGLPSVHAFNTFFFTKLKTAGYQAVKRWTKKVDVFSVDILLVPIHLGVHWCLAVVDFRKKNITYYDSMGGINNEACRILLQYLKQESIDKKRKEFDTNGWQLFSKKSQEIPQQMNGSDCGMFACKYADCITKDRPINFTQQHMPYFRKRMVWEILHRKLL

[13] = target: T2, Sentrin-specific protease 1; assay: Dose response confirmation of small molecule inhibitors of the catalytic domain of the SUMO protease, SENP1 in a FRET assay.; format: functional; conditions: read-out: IC50_Mean

With COc1ccc2oc(C(=O)Nc3nc4ccccc4[nH]3)c(C)c2c1 the EC50 [1] was 2.61 µM (active), the CC50 [2] was > 40 µM (active) and the EC50 [3] was > 150 µM (not active). The EC50 [4] was 12 µM (active), the EC50 [5] was 92.5 µM (inactive) and the EC50 [6] was 76.1 µM (inactive).
With COc1ccc2c3c([nH]c2c1)[C@@H](CO)N(C(=O)Nc1cccc(F)c1)CC31CN(S(=O)(=O)c2cccc(C)c2)C1 the AC50 [7] was 22.7 µM (active), the AC50 [8] was 23.1 µM (active) and the AC50 [9] was 14.9 µM (active). The AC50 [10] was 24.2 µM (active).
In the case of CCO[C@@H]1c2c(ccc3ccc(=O)oc23)OC(C)(C)[C@H]1O, the IC50 [11] is reported as > 1.11 µM (active).
For Cn1c2c(c3ccccc31)CCN(CCCCN1CCN(c3ccccc3)CC1)C2=O, the EC50 [5] was 92.4 µM (inactive) and the EC50 [6] was 0.0455 µM (active).
With Cc1ccc2n(n1)c(=O)c(Cc1ccccc1)c([O-])[n+]2-c1ccccc1 the IC50 [12] was 16.8 µM (active) and the IC50 [13] was 12.7 µM (active).
